According to ChEMBL document CHEMBL3832066, “DailyMed|setid=891194e8-7083-4438-8d27-c72f2372e40f | ISOSORBIDE MONONITRATE - isosorbide mononitrate tablet, extended release|Mckesson Contract Packaging”:
Several values for one entry are separate records, joined by “and”; a condition that tells them apart may be missing. Equal entries are not always repeated.

Experiments:
Assay type in all cases: ADME, organism-based
Homo sapiens [1] = assay: (§1) Pharmacokinetic parameters for Isosorbide mononitrate after multiple oral dose administrations of 60 and 120 mg Isosorbide mononitrate tablets to subjects; design: dose 120 mg, dose 60 mg, route oral; conditions: in vivo, po, dosed compound id 10, dosed compound name ISOSORBIDE MONONITRATE, regimen Multiple dose, tissue Plasma
[2] = as §1; design: dose 120 mg, dose 60 mg, route oral; conditions: human, in vivo; dose 60 mg, dosed compound id 10, dosed compound name ISOSORBIDE MONONITRATE, regimen Multiple dose, route oral, tissue Plasma
Homo sapiens [3] = assay: (§2) Pharmacokinetic parameters for Isosorbide mononitrate after single oral dose administration of 60 mg Isosorbide mononitrate solution or table to subjects.; design: dose 60 mg, route oral; conditions: in vivo, po, dosed compound id 10, dosed compound name ISOSORBIDE MONONITRATE, regimen Single dose, tissue Plasma
[4] = as §2; design: dose 60 mg, route oral; conditions: human, in vivo, dosed compound id 10, dosed compound name ISOSORBIDE MONONITRATE, regimen Single dose, tissue Plasma

With `O=[N+]([O-])O[C@@H]1CO[C@H]2[C@@H]1OC[C@@H]2O` [ISOSORBIDE MONONITRATE] the CL/F (Homo sapiens [1]; dose 120 mg) was 119 to 140 mL/min, the Tmax (Homo sapiens [1]; dose 120 mg) was 3.1 to 3.2 h and the AUC (Homo sapiens [1]) was 6620 to 7560 ng·h/mL and 14200 to 16800 ng·h/mL. For the same compound, the Cmax (Homo sapiens [1]) was 557 to 572 ng/mL and 1150 to 1180 ng/mL, the CL/F [2] was 132 to 151 mL/min and the Tmax [2] was 2.9 to 4.2 h. For the same compound, the half-life [2] was 6.2 to 6.3 h, the CL/F (Homo sapiens [3]; dose 60 mg) was 120 to 122 mL/min and the t1/2 (Homo sapiens [3]; dose 60 mg) was 4.8 to 5.1 h. The AUC (Homo sapiens [3]) was 8190 to 8310 ng·h/mL, the Cmax (Homo sapiens [3]) was 424 to 541 ng/mL and 1240 to 1530 ng/mL and the AUC ([4]; po, 60 mg) was 5990 to 7450 ng·h/mL. The CL/F ([4]; dose 60 mg, route oral) was 151 to 187 mL/min and the half-life ([4]; dose 60 mg, route oral) was 6.3 to 6.6 h.
